“And” between values parts separate entries of the source, which are not always exact repeats. Equal entries are not always repeated.
Assays:
[1] = test system: proliferating C2C12 mouse myoblast cells; assay: cell viability by crystal violet staining; assay type: cell-based; settings: for cell viability (Fig. 2b source data): crystal violet, normalized to DMSO, single replicates; for reduction in cellular viability: proliferating C2C12 cells
Experimental: Cellular viability was tested in two cell types, human hepatocarcinoma HepG2 cells and proliferating C2C12 mouse myoblast cells.
Data are presented as mean ± SEM. Source data are available as a Source Data file.
The human hepatocellular carcinoma cell line, HepG2 cells (ATCC HB-8065), were cultured in 10% FBS 1% L-Glu MEM at 37 °C in a humidified atmosphere of 5% CO2. Prior to RNA extraction cells were treated with either DMSO or REV-ERB agonist for 24 h. The C2C12 proliferating mouse myoblast cells (ATCC, CRL-1772) were cultured in 10% FBS DMEM at 37 °C in a humidified atmosphere of 5% CO2. Prior to RNA extraction cells were treated with either DMSO or REV-ERB agonist for 24 h. […]
[…] Media was removed, and cells were incubated with 0.5% crystal violet solution for 20 min at room temperature with mild agitation. Cells were washed four times with tap water before being air drying overnight. Cells were incubated in methanol for 20 min with mild agitation. Absorbance was read at 570 nm, and readings were normalized to vehicle (DMSO) treated cells.

[2] = test system: C2C12 cells; assay: relative gene expression of REV-ERB responsive genes by qPCR; assay type: cell-based, mouse; settings: C2C12, 5uM; single replicates; listed as SR1267
Excerpt: We next determined whether STL1267 can regulate characterized REV-ERB modulated genes in cell lines expressing REV-ERB naturally. Five micromolar doses of both drugs were used in cell-based experiments from this point on. REV-ERB is an established component of the core molecular clock repressing the expression of core clock gene Bmal1[6],[27] as well as others[28],[29]. […] In skeletal muscle, REV-ERB agonism increases the expression of a wide variety of genes important in mitochondrial function.
The human hepatocellular carcinoma cell line, HepG2 cells (ATCC HB-8065), were cultured in 10% FBS 1% L-Glu MEM at 37 °C in a humidified atmosphere of 5% CO2. Prior to RNA extraction cells were treated with either DMSO or REV-ERB agonist for 24 h. The C2C12 proliferating mouse myoblast cells (ATCC, CRL-1772) were cultured in 10% FBS DMEM at 37 °C in a humidified atmosphere of 5% CO2. Prior to RNA extraction cells were treated with either DMSO or REV-ERB agonist for 24 h. Prior to crystal violet cytotoxicity assay, cells were treated with either DMSO or REV-ERB agonist for 48 h.
Mouse tissue was homogenized using a bullet blender. DNA/protein was removed by phase separation using BCP/chloroform. The supernatant (RNA containing fraction) was collected, and RNA was precipitated using isopropanol. The RNA pellets were washed with 75% ethanol and resolubilized in RNAse free water. The purity of the RNA was tested by agarose gel prior to cDNA synthesis. Total RNA was harvested from HepG2 and C2C12 using the RNeasy mini kit according to manufacturer’s instructions (Qiagen).
Isolated RNA was reverse transcribed into cDNA using the qScript^TMcDNA Synthesis kit according to the manufacturer’s instructions (QuantaBio). Quantative PCR (qPCR) was performed on a QuantStudio^TM 6 Flex or QuantStudio^TM 7 Flex (Life Technologies) using SYBR^TM Select Master Mix (Applied BioSystems) with select primers (Table S2). Gene expression was normalized to Ppia for all data sets. Oligonucleotide sequences are provided in Supplementary Table 2.

[3] = target: GR (Homo sapiens, UniProt P04150); assay: Gal4-UAS reporter assay for nuclear receptor specificity; assay type: cell-based; settings: Gal4 DBD-NR, HEK293 cells, 10 µM
GR, sequence (P04150 524-777 limits assumed): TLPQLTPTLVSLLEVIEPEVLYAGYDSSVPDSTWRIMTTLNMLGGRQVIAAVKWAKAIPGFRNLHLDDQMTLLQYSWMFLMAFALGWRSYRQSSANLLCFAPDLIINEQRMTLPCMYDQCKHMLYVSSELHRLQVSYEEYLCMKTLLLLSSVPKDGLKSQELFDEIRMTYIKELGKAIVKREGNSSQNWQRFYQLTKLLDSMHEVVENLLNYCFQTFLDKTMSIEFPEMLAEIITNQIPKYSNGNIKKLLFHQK
Excerpt: (§1) We assessed the specificity of STL1267 using both in house nuclear receptor Gal4-NR reporter assays and the NIMH Psychoactive Drug Screening Program (PDSP) assays. We assessed the specificity of STL1267 in the PDSP’s radioligand displacement assays, screening for binding to off-target GPCRs, ion channels, transporters, and other drug targets (Table S1). Of the 43 targets assessed in this panel, we observed no detectable binding in 41 of them. […] Additional assessment in serotonin transporter and kappa opioid receptor activity in a functional assay may be warranted to determine absolute specificity.
(§2) Receptor RLBA Ki Receptor activity […]
(§3) HEK293 cells transfected with Gal4-UAS l uc i f eras e and […]

[4] = target: FXR (Homo sapiens, UniProt Q96RI1); assay: as above; assay type: cell-based; settings: Gal4 DBD-NR, HEK293 cells, 10 µM
FXR, sequence (Q96RI1 262-486 limits assumed): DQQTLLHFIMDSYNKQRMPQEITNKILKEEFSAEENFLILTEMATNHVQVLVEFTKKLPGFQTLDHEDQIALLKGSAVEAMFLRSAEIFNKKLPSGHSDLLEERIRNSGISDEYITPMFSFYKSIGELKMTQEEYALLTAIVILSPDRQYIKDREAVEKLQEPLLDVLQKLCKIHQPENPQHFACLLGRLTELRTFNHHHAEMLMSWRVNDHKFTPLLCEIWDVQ
Excerpt: as §1, §2, §3

[5] = target: RXRα (Homo sapiens, UniProt P19793); assay: as above; assay type: cell-based; settings: Gal4 DBD-NR, HEK293 cells, 10 µM; RXRa
RXRα, sequence (P19793 227-462 limits assumed): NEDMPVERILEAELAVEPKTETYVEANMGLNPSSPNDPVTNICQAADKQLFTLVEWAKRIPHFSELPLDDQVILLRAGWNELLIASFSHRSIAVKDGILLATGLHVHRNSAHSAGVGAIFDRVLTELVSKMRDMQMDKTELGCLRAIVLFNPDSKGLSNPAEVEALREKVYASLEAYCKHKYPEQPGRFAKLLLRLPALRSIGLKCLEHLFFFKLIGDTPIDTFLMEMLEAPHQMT
Excerpt: as §1, §2, §3

[6] = target: T1, full length human REV-ERBα (Homo sapiens, UniProt P20393); assay: cell-based two-hybrid luciferase reporter assay (REV-ERBα-FL/GAL4-DBD + NCoR-Vp16, HEK UAS-luc cells); settings: HEK293 UAS-luc cells
T1 construct: expressed in transfected cells; host or cells: HEK293 cells with stably integrated GAL4-UAS luciferase reporter
T1 sequence (P20393 whole entry, the tested form may be a part): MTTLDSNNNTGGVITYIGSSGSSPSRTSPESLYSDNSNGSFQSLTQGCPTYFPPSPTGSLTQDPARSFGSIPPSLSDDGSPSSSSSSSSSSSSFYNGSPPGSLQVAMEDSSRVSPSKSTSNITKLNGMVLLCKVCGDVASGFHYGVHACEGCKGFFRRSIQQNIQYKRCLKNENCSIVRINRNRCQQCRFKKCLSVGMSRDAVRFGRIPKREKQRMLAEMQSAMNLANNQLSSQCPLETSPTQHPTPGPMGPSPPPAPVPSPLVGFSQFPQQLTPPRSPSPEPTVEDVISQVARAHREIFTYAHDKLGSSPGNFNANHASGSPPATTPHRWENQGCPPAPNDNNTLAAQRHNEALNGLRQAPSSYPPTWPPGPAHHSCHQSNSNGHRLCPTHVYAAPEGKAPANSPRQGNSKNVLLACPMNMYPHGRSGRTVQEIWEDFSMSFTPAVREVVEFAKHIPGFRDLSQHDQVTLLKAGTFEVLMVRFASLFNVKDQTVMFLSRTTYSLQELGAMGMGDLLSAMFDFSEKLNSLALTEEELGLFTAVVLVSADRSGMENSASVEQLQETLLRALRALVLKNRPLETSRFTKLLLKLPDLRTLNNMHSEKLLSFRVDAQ
T1 sequence (O75376 whole entry partner, the tested form may be a part): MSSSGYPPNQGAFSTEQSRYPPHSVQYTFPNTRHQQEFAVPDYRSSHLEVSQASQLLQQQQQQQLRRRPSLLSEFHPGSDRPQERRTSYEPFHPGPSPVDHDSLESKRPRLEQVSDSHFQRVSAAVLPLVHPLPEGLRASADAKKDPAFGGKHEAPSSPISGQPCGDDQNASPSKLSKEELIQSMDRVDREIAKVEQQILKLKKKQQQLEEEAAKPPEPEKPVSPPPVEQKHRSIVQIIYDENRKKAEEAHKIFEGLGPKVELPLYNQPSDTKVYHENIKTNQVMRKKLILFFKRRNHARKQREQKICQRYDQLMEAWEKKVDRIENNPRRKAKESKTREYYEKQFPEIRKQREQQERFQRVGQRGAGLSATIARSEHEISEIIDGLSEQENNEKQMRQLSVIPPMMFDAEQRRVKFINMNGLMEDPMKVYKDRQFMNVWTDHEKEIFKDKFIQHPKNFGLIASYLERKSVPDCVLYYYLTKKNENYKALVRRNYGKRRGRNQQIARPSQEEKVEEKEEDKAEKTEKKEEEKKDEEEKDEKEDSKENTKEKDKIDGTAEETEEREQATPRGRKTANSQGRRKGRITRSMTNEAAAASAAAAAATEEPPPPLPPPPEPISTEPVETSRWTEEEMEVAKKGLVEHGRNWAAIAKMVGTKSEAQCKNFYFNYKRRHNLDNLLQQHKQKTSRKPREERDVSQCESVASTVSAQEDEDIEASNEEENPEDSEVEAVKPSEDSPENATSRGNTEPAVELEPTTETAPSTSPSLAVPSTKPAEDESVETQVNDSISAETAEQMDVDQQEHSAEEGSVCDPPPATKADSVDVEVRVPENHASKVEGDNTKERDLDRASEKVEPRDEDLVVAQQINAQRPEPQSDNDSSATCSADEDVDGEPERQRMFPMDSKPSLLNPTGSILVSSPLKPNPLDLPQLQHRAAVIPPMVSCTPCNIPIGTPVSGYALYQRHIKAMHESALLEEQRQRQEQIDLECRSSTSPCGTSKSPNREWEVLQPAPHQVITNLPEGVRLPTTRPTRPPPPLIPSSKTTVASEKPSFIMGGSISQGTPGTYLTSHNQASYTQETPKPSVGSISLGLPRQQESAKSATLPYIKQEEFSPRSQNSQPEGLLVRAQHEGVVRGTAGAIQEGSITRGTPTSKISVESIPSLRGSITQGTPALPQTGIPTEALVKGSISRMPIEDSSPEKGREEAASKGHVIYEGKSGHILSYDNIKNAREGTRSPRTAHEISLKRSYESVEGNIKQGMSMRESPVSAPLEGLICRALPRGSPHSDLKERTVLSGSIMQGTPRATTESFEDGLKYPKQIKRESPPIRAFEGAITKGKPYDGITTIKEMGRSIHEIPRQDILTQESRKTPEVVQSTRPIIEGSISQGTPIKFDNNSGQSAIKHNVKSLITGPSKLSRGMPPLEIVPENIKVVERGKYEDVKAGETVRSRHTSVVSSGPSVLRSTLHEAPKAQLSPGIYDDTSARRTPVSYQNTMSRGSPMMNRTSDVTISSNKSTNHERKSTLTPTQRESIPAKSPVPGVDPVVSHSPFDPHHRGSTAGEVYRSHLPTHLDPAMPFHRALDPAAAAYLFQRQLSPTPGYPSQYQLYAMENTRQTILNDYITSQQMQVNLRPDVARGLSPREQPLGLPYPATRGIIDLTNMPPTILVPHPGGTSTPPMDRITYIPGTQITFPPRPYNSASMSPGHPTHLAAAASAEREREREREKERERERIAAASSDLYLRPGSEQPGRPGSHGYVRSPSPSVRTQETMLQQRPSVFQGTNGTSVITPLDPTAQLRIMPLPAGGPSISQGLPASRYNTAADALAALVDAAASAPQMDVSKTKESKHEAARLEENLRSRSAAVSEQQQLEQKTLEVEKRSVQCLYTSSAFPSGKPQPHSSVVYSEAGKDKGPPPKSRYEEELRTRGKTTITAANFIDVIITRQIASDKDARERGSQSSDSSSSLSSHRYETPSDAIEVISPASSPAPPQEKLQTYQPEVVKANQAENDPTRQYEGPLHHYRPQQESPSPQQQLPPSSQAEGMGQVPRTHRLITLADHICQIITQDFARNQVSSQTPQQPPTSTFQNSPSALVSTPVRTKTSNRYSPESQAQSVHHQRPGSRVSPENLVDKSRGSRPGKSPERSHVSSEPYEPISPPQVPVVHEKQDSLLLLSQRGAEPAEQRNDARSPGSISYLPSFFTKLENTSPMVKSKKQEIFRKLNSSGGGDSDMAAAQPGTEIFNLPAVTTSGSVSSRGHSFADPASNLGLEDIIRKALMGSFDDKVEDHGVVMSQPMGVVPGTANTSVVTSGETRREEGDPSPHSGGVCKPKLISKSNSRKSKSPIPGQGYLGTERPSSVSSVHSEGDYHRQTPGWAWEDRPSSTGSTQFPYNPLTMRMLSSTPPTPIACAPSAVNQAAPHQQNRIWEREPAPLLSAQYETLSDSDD

Question: With `Clc1nnc2ccc(Oc3ccccc3-c3ccccc3)nn12` [STL1267] as the molecule, how does the “cell viability (Fig. 2b source data)” value ([1]; C2C12, 1 uM) read?
Answer: 92.0631 and 77.3068 and 87.5705 and 94.4131 and 98.2145 and 106.232 and 102.707

Question: And the “cell viability (Fig. 2b source data)” value ([1]; C2C12, 2 uM)?
Answer: 85.9463 and 90.0242 and 93.8256 and 90.5771 and 97.5579 and 103.433 and 103.26 and 102.949

Question: What about the “cell viability (Fig. 2b source data)” value ([1]; C2C12, 5 uM) of the same molecule?
Answer: 92.9616 and 90.6808 and 91.0609 and 85.0824 and 101.498 and 105.679 and 104.435 and 94.6204

Question: And the “cell viability (Fig. 2b source data)” value ([1]; C2C12, 10 uM)?
Answer: 88.9874 and 85.3588 and 77.2722 and 82.9397 and 90.0242 and 92.8925 and 94.5859 and 92.7197

Question: And the “cell viability (Fig. 2b source data)” value ([1]; C2C12, 20 uM)?
Answer: 77.9634 and 78.8964 and 75.3024 and 82.4905 and 83.4236 and 81.9721 and 84.5985 and 90.5771

Question: And the “reduction in cellular viability” value ([1]; 10 μM)?
Answer: ~ 10%

Question: And the “reduction in cellular viability” value ([1]; 20 μM)?
Answer: ~ 20%

Question: What about the “Ppargca1 relative gene expression” value [2] of the same molecule?
Answer: 8.425 and 7.081 and 5.71

Question: And the “lcad relative gene expression” value [2]?
Answer: 25.4657 and 24.2235 and 14.2579

Question: And the “lkb1 relative gene expression” value [2]?
Answer: 4.349 and 3.556 and 2.4615

Question: What about the “mt-Nd1 relative gene expression” value [2] of the same molecule?
Answer: 3.873 and 3.557 and 4.501

Question: And the “mt-co1 relative gene expression” value [2]?
Answer: 7.748 and 5.296 and 5.742

Question: And the “nampt relative gene expression” value [2]?
Answer: 4.112 and 2.537 and 1.9657

Question: And the “scad relative gene expression” value [2]?
Answer: 25.4657 and 24.2235 and 14.2579

Question: What about the “sirt1 relative gene expression” value [2] of the same molecule?
Answer: 4.33 and 3.474 and 1.956

Question: What about the “vlcad relative gene expression” value [2] of the same molecule?
Answer: 14.2905 and 16.1127 and 7.599

Question: What about the activity [3] of the same molecule?
Answer: did not detect activity

Question: And the activity [4]?
Answer: did not detect activity

Question: What about the activity [5] of the same molecule?
Answer: did not detect activity

Question: What about the “maximal efficacy for recruitment of NCoR-VP16 vs. SR9009” value [6] of the same molecule?
Answer: ~ 8 fold

Question: What about the EC50 ([6]; 24 h, read-out: EC50, recruitment of NCoR-Vp16) of the same molecule?
Answer: 1800 nM

From paper PMC9681850, “Structural basis of synthetic agonist activation of the nuclear receptor REV-ERB” (Nature Communications, 2022)
